In paper PMC11648915, “Identification and development of TRPM4 antagonists to counteract neuronal excitotoxicity” (iScience, 2024):
Entries after “also recorded” stand apart in the source; their conditions may differ. Where two headings read alike, the source gives them in different places.

Assays:
[1] = tested on: broad panel of receptors, enzymes, and ion channels; assay: SafetyScreen44 in vitro pharmacology panel (whole panel); format: binding; conditions: SafetyScreen44, 5 μM; active = inhibition above 50%
Description: We next used in vitro assays to test absorption, distribution, metabolism, excretion and toxicity (ADMET) parameters for selected compounds. We assessed compound absorption using parallel artificial membrane permeability (PAMPA) and Caco-2 cell permeability assays (cut-off criterion >2 × 10^−6 cm s^−1). Compound toxicity was evaluated by measuring inhibition of cytochrome P450 enzymes (CYP), the potassium channel human Ether-a-go-go Related Gene (hERG), and TRPM5, with all parameters meeting acceptable criteria. […] To assess potential off-target activity of our compounds that could be relevant for safety in humans, we conducted comprehensive in vitro pharmacology using the commercially available and widely used SafetyScreen44 interaction panel[60] covering eight protein families.
For in vitro pharmacological profiling and determination of off target effects compound were screened at a 5 μM in duplicate for their potential to bind to a broad panel of receptors, enzymes, and ion channels on a commercially available platform (Safetyscreen 44 Panel; Eurofins Cerep, Le Bois l'Evêque, B.P. 30001, 86 600 Celle l'Evescault, France), Study ID FR095-0009609).

[2] = In vivo pharmacokinetics after single i.p. or i.v. dose; conditions: female, C57BL/6J, mouse
Description: Next, to assess in vivo availability of the Series 1–3 compounds, we evaluated drug metabolism and pharmacokinetics (DMPK). We measured compound concentrations in plasma, heart, and brain at several time points after intraperitoneal (i.p.) or intravenous (i.v.) single-dose injections.
Half-life and bioavailability were calculated by noncompartmental analysis using the R package PK[84] (v1.3-6).

mouse TRPM4 = molecular target: T1, mouse TRPM4 (Mus musculus, UniProt Q7TN37); assay: Inside-out patch clamp, mouse TRPM4; format: cell-based; conditions: inside-out patch clamp configuration
T1 construct: Human TRPM4 (UniProtKB: Q8TD43-1) and mouse Trpm4 (UniProtKB: Q7TN37-1) were amplified via PCR; eGFP (C); expressed in transfected cells
T1 sequence (Q7TN37 whole entry): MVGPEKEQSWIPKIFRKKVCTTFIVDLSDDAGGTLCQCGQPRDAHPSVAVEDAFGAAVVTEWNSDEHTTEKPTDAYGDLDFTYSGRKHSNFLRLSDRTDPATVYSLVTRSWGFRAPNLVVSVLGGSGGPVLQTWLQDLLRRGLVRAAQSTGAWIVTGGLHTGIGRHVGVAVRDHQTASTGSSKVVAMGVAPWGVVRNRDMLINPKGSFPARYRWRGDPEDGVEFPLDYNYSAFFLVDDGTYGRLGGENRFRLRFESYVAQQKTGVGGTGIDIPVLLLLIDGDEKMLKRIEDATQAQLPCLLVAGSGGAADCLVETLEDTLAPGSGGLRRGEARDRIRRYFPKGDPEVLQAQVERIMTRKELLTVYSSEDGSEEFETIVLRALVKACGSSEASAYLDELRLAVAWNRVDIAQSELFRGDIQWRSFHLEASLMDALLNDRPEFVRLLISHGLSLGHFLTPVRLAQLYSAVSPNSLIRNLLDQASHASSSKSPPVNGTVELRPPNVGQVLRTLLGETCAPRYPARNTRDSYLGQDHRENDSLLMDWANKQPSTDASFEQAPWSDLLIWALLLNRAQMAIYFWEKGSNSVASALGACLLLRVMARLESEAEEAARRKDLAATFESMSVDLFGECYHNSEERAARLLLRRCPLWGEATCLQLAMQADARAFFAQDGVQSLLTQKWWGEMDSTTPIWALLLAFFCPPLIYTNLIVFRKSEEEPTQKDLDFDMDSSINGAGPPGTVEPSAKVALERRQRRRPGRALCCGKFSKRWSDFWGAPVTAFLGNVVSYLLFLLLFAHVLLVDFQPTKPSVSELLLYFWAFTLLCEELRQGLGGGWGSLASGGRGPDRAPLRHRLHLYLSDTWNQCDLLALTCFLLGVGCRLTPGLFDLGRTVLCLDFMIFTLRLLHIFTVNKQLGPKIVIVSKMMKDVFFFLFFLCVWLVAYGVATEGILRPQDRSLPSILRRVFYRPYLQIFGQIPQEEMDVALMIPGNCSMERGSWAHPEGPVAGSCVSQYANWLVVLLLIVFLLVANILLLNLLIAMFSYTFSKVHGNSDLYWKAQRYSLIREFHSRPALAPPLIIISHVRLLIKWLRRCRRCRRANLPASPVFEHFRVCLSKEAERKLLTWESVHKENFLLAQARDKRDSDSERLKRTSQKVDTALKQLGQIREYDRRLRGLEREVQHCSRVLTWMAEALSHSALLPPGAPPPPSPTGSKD

[3] = molecular target: hsTRPM4 L907A, S924A and L907A/S924A mutants (Homo sapiens, UniProt Q8TD43, L907A/S924A); assay: Whole-cell patch clamp of wild-type and binding-site mutant hsTRPM4; conditions: whole-cell voltage clamp
Sequence of hsTRPM4 L907A, S924A and L907A/S924A mutants (Homo sapiens, UniProt Q8TD43, L907A/S924A) (Q8TD43 whole entry L907A/S924A): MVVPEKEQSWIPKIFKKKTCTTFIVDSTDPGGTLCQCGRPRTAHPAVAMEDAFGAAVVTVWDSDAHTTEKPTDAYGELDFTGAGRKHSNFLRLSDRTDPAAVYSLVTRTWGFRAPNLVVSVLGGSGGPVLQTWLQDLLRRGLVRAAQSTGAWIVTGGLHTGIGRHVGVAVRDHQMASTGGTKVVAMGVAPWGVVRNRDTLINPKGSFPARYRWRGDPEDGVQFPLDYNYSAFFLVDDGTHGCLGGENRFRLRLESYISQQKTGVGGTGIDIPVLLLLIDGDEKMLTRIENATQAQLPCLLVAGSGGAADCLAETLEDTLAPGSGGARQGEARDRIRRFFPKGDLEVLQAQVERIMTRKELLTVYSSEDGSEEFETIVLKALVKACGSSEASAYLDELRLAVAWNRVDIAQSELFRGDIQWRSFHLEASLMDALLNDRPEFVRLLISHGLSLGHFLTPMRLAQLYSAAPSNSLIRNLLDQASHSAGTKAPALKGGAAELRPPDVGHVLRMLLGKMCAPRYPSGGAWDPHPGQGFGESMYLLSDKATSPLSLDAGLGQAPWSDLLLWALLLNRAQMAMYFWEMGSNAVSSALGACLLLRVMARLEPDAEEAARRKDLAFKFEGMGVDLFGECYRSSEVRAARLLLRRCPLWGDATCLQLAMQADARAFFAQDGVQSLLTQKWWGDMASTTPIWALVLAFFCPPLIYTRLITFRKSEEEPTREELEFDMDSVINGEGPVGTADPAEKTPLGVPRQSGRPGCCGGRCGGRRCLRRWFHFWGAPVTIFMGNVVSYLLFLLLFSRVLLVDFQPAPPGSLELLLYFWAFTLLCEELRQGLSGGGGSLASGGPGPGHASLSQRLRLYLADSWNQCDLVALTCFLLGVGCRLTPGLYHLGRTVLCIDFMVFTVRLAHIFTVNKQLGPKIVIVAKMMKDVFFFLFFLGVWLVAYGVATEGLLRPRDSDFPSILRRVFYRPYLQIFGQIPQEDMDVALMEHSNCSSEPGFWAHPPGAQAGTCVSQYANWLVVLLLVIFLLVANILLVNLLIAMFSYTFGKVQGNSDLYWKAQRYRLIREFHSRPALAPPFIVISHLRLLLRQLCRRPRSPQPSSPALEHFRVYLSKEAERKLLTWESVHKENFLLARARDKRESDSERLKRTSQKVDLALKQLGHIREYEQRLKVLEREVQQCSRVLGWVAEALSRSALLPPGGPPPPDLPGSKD
Description: (§1) Initially, we assessed the basic properties of the hsTRPM4 mutants using whole-cell patch clamp electrophysiology.

[4] = tested on: hsTRPM4 L907A, S924A and L907A/S924A mutants; assay: as above; conditions: whole-cell voltage clamp, HEK293T
Description: as §1

human TRPM4 [5] = molecular target: T2, human TRPM4 (Homo sapiens, UniProt Q8TD43); assay: Inside-out patch clamp, human TRPM4; format: cell-based; design: Human TRPM4 (UniProtKB: Q8TD43-1) and mouse Trpm4 (UniProtKB: Q7TN37-1) were amplified via PCR; expressed in transfected cells; conditions: inside-out patch clamp configuration
T2 sequence (Q8TD43 whole entry): as the sequence (Q8TD43 whole entry L907A/S924A) above, with A907L, A924S counted along it
Description: Patch clamp recordings were conducted using an EPC10 patch clamp amplifier and Patchmaster software (HEKA, Germany). An Ag/AgCl wire served as the reference electrode in all experiments. […] Liquid junction potential was compensated before achieving gigaseal formation. All experiments were conducted at room temperature. Whole-cell currents were recorded in transiently transfected HEK293 cells expressing either wildtype human TRPM4, TRPM4-L907A, or TRPM4-S924A. Recordings involved a 400 ms increasing voltage ramp from –100 mV to +100 mV, initiated from a holding potential of 0 mV. The interval between each sweep was 2 seconds, with data sampled at 5 kHz. […] To identify TRPM4 currents, extracellular Na^+ was replaced with equimolar NMDG^+. […] Similar to whole-cell recordings, a 400 ms increasing voltage ramp from –100 mV to +100 mV was applied from a holding potential of 0 mV. The interval between sweeps was 2 seconds, and data were sampled at 5 kHz. […] TRPM4 currents were activated by 500 μM CaCl2 and deactivated by 10 mM EGTA, both added to the intracellular solution. Ca^2+ activation curves were fitted using a likelihood maximization algorithm to estimate the parameters for the sigmoidal fitting curves y-maximum, slope and midpoint as part of the R package sicegar (V0.2.4).

human TRPM4 [6] = molecular target: T2, human TRPM4; assay: QPatch automated patch clamp on TRPM4-expressing HEK293 cells; format: cell-based; conditions: hsTRPM4-expressing HEK293 cells
Description: QPatchHTX, an automated electrophysiology platform, was used in single hole mode. One day before use human TRPM4- or TRPM5-expressing HEK293 cells were seeded in a T75 flask at a density of 53k cells per cm^2 and at passages < 23. […] The extracellular solution was (in mM): CaCl2 (7), MgCl2 (2), KCl (5), HEPES (10), NaCl (70), NMDG (70); pH 7.4 with NaOH. The intracellular solution was (in mM): HEPES (10), NMDG (100), NaCl (50), EGTA (20), MgCl2 (1), CaCl2 (21); pH 7.2 with HCl. […] This protocol was repeated every 7 seconds. […] FFA was used as reference compound and applied cumulatively with each concentration incubating at a minimum of 20 voltage protocol runs (140 seconds) with the current after addition of FFA being calculated as full block. […] Each compound was measured at least 3 time independently.

[7] = tested on: primary mouse neuronal cultures; assay: Glutamate-induced excitotoxicity assay (RealTime-Glo viability); format: cell-based; conditions: 5 μM
Description: To evaluate the in vitro efficacy of our developed compounds, we employed primary mouse neuronal cultures (PNCs) and conducted glutamate-induced excitotoxicity assays. Cultures were pre-treated with respective Series 1 and Series 3 compounds before glutamate exposure, and neuronal viability was assessed 15 h post-stimulation with glutamate.
Figure 3 Neuroprotective in vitro evaluation and in vivo pharmacokinetics (A) In vitro evaluation of compound activity on glutamate-induced excitotoxicity in mature primary neuronal cultures. Neuronal cultures were treated with 5 μM of the specified compound or vehicle control 5 h prior to glutamate stimulation, assessing compound rescue activity and toxicity relative to minimal (Vehicle +0 μM Glu) and maximal (Vehicle +50 μM Glu) excitotoxicity. Time course of a representative compound with virtual endpoint at 15 h post stimulation and assay window definition (left). Toxicity of compound treated cultures with and without glutamate stimulation (right). Data are represented as mean and 95% confidence interval; n ≥ 4; ∗p < 0.05, ∗∗p < 0.01, ∗∗∗p < 0.001; One-sample Wilcoxon signed-rank test. […] Mitochondrial membrane potential was measured by the mean fluorescence intensity of TMRE normalized to MitoTracker. Data are represented as mean ± SEM; n = 5; paired t-test. (C) In vivo pharmacokinetics of four selected compounds. Time course of compound concentration in the brain, heart, and plasma after a single dose via intraperitoneal (i.p.) or intravenous (i.v.) application. Data are represented as mean ± SEM. Half-life estimates by non-compartmental analysis are shown as vertical line and IC50 value as dashed horizontal line. (D) Compound concentration in the brain relative to respective IC50 concentrations after a single dose via intra-peritoneal or intra-venous routes. Also see Figure S6.
Excitotoxicity assays were performed using primary mouse neuronal cultures between 14 and 17 days in vitro (DIV). Cell viability was measured using RealTime-Glo MT Cell Viability Assay (Promega, catalog no. G9711) according to the manufacture protocol. Compounds were co-administered with RealTime-Glo reagents, and luciferase measurements were conducted using the Tecan-Spark M10 microplate reader with environmental control set to 37°C and 5% CO2. Neuronal cultures were stimulated with either glutamate or vehicle five hours after compound application and monitored for an additional 20 hours. To adjust for inter-well variability, arbitrary light units were normalized to a steady signal prior to glutamate addition for each well. Toxicity was calculated relative to the minimal cell viability at 15 hours post glutamate stimulation and cell viability of the PBS vehicle control.

[8] = tested on: primary mouse neuronal cultures; assay: TMRE assay of mitochondrial membrane potential after glutamate; format: cell-based; conditions: 50 μM glutamate for 2 h, compound 30 min before
Description: We assessed its ability to inhibit the deterioration of mitochondrial membrane potential (ΔΨm) in response to glutamate-induced excitotoxicity. The ratio between the ΔΨm-dependent dye tetramethylrhodamine ethyl ester (TMRE) and the mitochondrial dye MitoTracker was quantified for this purpose.
Subsequently 50 μM glutamate was applied for in total 2 hours. Then, 20 nM TMRE dye (Abcam, ab113852), 500 nM MitoTracker dye (ThermoFisher, M7512), and 1 μM Hoechst 33342 were added after 1.5 hours glutamate stimulation for 30 minutes. Afterwards cells were washed two times in pre-warmed medium and were imaged immediately in preconditioned medium using a confocal microscope (Zeiss, LSM700) with 20-fold magnification and controlled atmosphere conditions (37°C, 5% CO2). Imaging time was less than 10 minutes per condition. We quantified the total MFI of the MitoTracker and TMRE dyes per cell. At least 50 cells per condition were quantified and the mean ratios of TMRE to Mitotracker per independent experiments were reported.

| SMILES | Off-target binding in in vitro pharmacology panel [1] | half-life ([2]; brain, ip, read-out: Brain half-life (converted)) [h] | half-life ([2]; brain, iv, read-out: Brain half-life (converted)) [h] | half-life ([2]; heart, ip, read-out: Heart half-life (converted)) [h] | half-life ([2]; heart, iv, read-out: Heart half-life (converted)) [h] | half-life ([2]; plasma, ip, read-out: Plasma half-life (converted)) [h] | half-life ([2]; plasma, iv, read-out: Plasma half-life (converted)) [h] | Activity on mouse TRPM4 (mouse TRPM4) | Affinity in the L907A/S924A double mutant [3] | Current inhibition of hsTRPM4 L907A and S924A mutants versus wildtype [4] | Activity on human TRPM4 (human TRPM4 [5]) | IC50 (human TRPM4 [6]) [µM] | Protective effect in excitotoxicity assay ([7]; glutamate-stimulated primary mouse neuronal cultures) | Compound toxicity in neuronal cultures ([7]; primary mouse neuronal cultures) | Mitochondrial membrane potential (ΔΨm), TMRE / MitoTracker ratio [8] |
| --- | --- | --- | --- | --- | --- | --- | --- | --- | --- | --- | --- | --- | --- | --- | --- |
| O=C(CCc1ccccc1)Nc1ccc(Br)cc1C(=O)O [CMP233] | no off-target binding | 1.4 | 0.3 | 1.1 | 1.3 | 0.9 | 0.5 | highly effective in both species; also recorded: active on both species | completely abolished | significantly reduced current inhibition in at least one hsTRPM4 mutant variant | highly effective in both species; also recorded: active on both species |  |  |  |  |
| COc1cccc(-c2ccccc2NCc2nc3ccccc3o2)c1 [CMP312] |  |  |  |  |  |  |  | reduced activity on mouse TRPM4 compared to human TRPM4; also recorded: significantly less effective on mouse TRPM4 | completely abolished | significantly reduced current inhibition in at least one hsTRPM4 mutant variant | almost completely blocked | 4.87 | potent protective effects | non-toxicity | mitigated the glutamate-induced decrease in ΔΨm |
